Assay results as given in patent US8741944B2, “Anti-infective agents against intracellular pathogens” (priority 2007, dated 2014).

Columns and labels:
PC-3 cells = test: Cell viability analysis, MTT assay in PC-3 cells; assay type: cell-based, human; conditions: inducing apoptotic death in PC-3 cells / PC-3 cell viability; read-out: IC50 PC-3
Description: Cell Culture PC-3 (p53−/−) human androgen-non-responsive prostate cancer cells were purchased from the American […] (Manassas, Va.). Cells were cultured in RPMI 1640 medium (Gibco, Grand Island, N.Y.) supplemented with 10% fetal bovine serum (FBS; Gibco) at 37° C. in a humidified incubator containing 5% CO2.
Controls received DMSO vehicle at a concentration equal to that in drug-treated cells. The medium was removed, replaced by 200 μl of 0.5 mg/ml of MTT in 10% FBS-containing RPMI-1640 medium, and cells were incubated in the CO2 incubator at 37° C. for 2 h. Supernatants were removed from the wells, and the reduced MTT dye was solubilized in 200 μL/well DMSO. Absorbance at 570 nm was determined on a plate reader.

Akt = test: Direct inhibition of immunoprecipitated Akt kinase activity; assay type: biochemical, human

**Q.** With “4-[5-(2-Phenanthrenyl)-3-(trifluoromethyl)-1H-pyrazol-1-yl]-phenyl -guanidine [Compound 71]” as the substance, how does the IC50 (PC-3 cells) read?
**A.** The IC50 was 3000 nM.

**Q.** And the “direct inhibitory effect on immunoprecipitated Akt kinase activity” value (Akt)?
**A.** Its value is “no appreciable direct inhibition”.
